{"source": "patent US20090326007A1", "about": "“Compounds and methods for modulating sir2 protein activity” (priority 2007, published 2009)", "key": {"Hst2 [1]": {"molecular_target": "T1, Hst2 (Saccharomyces cerevisiae, UniProt P53686)", "T1 sequence (P53686 1-294)": "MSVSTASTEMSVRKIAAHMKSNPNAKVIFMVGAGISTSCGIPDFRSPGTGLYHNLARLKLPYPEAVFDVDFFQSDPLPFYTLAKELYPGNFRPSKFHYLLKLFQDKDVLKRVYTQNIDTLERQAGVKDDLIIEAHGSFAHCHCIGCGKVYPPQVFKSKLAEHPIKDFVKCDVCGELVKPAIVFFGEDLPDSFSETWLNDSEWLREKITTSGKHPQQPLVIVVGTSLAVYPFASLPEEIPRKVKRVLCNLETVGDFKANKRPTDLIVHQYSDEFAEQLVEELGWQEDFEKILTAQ", "test": "IC50 determination, fluorigenic deacetylase assay, Hst2", "method": "(§1) IC50 Determination. […] The dose-response curves were then fit to one-site competition or sigmoidal-dose response curves as appropriate in [sequence] PRISM (GraphPad Software, La Jolla, Calif.) and the IC50 was determined. Three independent IC50 measurements were performed for each compound and the average and standard deviation are reported.\nThe resulting deacetylase activity for the three experiments was averaged and reported as a percentage relative to control wells containing no inhibitor."}, "Hst2 [2]": {"molecular_target": "T1, Hst2", "test": "SAR analysis, fluorigenic assay at 50 and 500 μM", "format": "biochemical", "conditions": "FIG. 2, 50 μM and 500 μM compound", "text": "Structure Activity Relationship (SAR) Analysis."}, "full-length human SIRT1": {"molecular_target": "T2, full-length human SIRT1 (Homo sapiens, UniProt Q96EB6)", "T2 sequence (Q96EB6 1-747)": "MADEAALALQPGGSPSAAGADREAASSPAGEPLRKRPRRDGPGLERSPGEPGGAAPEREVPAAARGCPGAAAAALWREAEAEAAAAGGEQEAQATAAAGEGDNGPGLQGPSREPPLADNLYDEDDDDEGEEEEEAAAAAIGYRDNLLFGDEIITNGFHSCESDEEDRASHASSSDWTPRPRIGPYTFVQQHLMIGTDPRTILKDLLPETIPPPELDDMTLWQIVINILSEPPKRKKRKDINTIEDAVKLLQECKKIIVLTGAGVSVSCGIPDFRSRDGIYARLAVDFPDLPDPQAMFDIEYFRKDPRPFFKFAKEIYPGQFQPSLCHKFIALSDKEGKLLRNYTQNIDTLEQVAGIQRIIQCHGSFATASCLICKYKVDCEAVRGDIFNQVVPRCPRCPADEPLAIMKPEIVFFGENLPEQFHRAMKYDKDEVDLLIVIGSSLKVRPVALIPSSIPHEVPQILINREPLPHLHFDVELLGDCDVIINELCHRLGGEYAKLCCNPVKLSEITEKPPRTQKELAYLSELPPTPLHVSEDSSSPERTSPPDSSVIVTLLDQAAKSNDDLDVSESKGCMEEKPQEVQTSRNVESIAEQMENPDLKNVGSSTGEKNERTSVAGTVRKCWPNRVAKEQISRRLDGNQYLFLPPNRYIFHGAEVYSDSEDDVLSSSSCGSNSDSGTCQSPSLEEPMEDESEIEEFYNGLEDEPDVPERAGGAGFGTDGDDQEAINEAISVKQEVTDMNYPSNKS", "test": "IC50 determination, fluorigenic deacetylase assay, FL SIRT1", "method": "Cells were harvested and lysed by sonication in buffer containing 50 mM Tris, pH 7.5, 200 mM NaCl, 5 mM imidizole, 10 mM β-mercaptoethanol (BME) and 0.1 mg/mL PMSF. Soluble FL SIRT1 was purified by Ni-NTA (Qiagen, Valencia, Calif.) in a buffer containing 50 mM Tris, pH 7.5, 300 mM NaCl, 10 mM BME, 5% glycerol and 30-600 mM imidizole followed by SUPERDEX-200 gel filtration in buffer containing 50 mM Tris, pH 7.5, 150 mM NaCl, and 10 mM BME. FL SIRT1 eluted between the 670 kDa and 158 kDa globular protein standards. Since SIRT1 is known to aggregate after several days at 4° C., the protein was aliquoted and frozen at −80° C. for use in fluorigenic assays.\nas §1"}, "Hst2 [3]": {"molecular_target": "T1, Hst2", "test": "Competition assay (inhibition mode versus NAD+ and acetyl-lysine substrate)", "format": "biochemical", "conditions": "for Ki: read-out: Ki", "description": "Competition Assay. […] The fluorigenic assay described above was used with a fixed enzyme concentration of 1 μM. When competition with NAD^+ was being tested, the FLUOR DE LYS-SIRT1 deacetylase substrate was held at a constant concentration of 100 μM and the NAD^+ was titrated from ⅓-5× KmNAD+ (5-80 μM). […] The inhibitors were titrated from ˜½-several times their estimated Ki as indicated. The reaction time was 15 minutes, and each condition was tested in duplicate. The Km, kcat and kcat/Km values were determined by direct fit of the data in SIGMAPLOT (Systat Software, Point Richmond, Calif.) to the Michealis-Menten equation. The Ki and Kis (the slope and intercept inhibition constants, respectively) and the competition type were also determined by a direct fit in SIGMAPLOT to both partial and full competitive, noncompetitive, uncompetitive and mixed competition models. Best-fit models were determined by several statistical methods including R^2, AICs and Sy.x as well as empirical evaluation of α and β values.\nTo determine the mechanism of inhibition of the compounds identified by HTS and to gain insight as to where these compounds may bind to the enzyme, inhibition modes were determined by varying each of the substrates with the other maintained at a fixed, saturating concentration (Table 11)."}, "human SIRT2": {"molecular_target": "T3, human SIRT2 (Homo sapiens, UniProt Q8IXJ6)", "T3 sequence (Q8IXJ6 1-352 isoform Q8IXJ6-2)": "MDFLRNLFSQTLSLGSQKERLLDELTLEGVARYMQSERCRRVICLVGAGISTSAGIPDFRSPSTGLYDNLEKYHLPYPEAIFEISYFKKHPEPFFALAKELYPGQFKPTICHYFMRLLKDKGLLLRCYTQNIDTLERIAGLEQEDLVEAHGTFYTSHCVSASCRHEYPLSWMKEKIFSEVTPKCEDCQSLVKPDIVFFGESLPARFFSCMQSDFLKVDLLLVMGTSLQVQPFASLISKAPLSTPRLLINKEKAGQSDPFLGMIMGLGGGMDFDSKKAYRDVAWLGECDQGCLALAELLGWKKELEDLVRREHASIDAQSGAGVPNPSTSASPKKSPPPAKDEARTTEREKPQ", "test": "Inhibition assay against human SIRT2 (fluorigenic)", "method": "(§2) Human recombinant SIRT3 was purchased from Enzo Life Sciences.\n(§3) Inhibition Assay Against Human SIRT2 and SIRT3. […] Two independent measurements were performed for each compound and the average and standard deviation are reported."}, "human SIRT3": {"molecular_target": "T4, human SIRT3 (Homo sapiens, UniProt Q9NTG7)", "T4 sequence (Q9NTG7 1-399)": "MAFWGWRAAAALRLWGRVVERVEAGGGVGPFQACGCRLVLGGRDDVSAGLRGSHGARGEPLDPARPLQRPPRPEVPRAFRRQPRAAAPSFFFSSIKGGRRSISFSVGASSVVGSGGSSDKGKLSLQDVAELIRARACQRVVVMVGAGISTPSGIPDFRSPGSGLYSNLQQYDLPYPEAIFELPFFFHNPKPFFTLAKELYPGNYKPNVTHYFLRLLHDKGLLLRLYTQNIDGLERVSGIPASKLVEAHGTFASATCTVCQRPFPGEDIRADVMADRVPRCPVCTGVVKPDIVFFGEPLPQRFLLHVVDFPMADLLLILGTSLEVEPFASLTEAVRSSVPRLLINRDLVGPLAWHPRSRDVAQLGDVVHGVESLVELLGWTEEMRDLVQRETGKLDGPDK", "test": "Inhibition assay against human SIRT3 (fluorigenic)", "method": "as §2, §3"}, "[4]": {"conditions": "read-out: Hst2 IC50, Table 5, 160 μM NAD+, 100 μM substrate, 1 μM Hst2, 15 min"}, "[5]": {"conditions": "50 μM compound, relative to control without inhibitor"}}, "note": "Entries after “also recorded” stand apart in the source; their conditions may differ. Where two headings read alike, the source gives them in different places. *1 amine or outer side, *2 acyl side, *3 side chain or, on linkers, in order; H or OH if unused. Where a SMILES comes first, the peptide text is derived from it. Bridges are numbered along the chain shown (N, C = ends). [ ]: non-standard residue; d: D form. X1 = CC(C)CCCCCCCCC[C@H](CC(=O)[*:1])O[*:2]"}
{"molecule": "O=C(O)CCCN1C(=O)c2ccccc2C1=O", "note": "[Compound 427032]", "values": [{"measurement": "IC50", "setting": "Hst2 [1]; Table 10, Hst2", "result": "No Inh."}]}
{"molecule": "[Cu+]", "note": "[Cu^1+]", "values": [{"measurement": "inhibition of the Hst2 deacetylase reaction by metal ions (in words)", "setting": "Hst2 [2]", "result": "inhibited Hst2 to similar extents"}]}
{"molecule": "[Fe+2]", "note": "[Fe^2+]", "values": [{"measurement": "inhibition of the Hst2 deacetylase reaction by metal ions (in words)", "setting": "Hst2 [2]", "result": "inhibited Hst2 to similar extents"}]}
{"molecule": "[Hg+2]", "note": "[Hg^2+]", "values": [{"measurement": "inhibition of the Hst2 deacetylase reaction by metal ions (in words)", "setting": "Hst2 [2]", "result": "inhibitors"}]}
{"molecule": "[Mg+2]", "note": "[Mg^2+]", "values": [{"measurement": "inhibition of the Hst2 deacetylase reaction by metal ions (in words)", "setting": "Hst2 [2]", "result": "are not"}]}
{"molecule": "[Ni+2]", "note": "[Ni^2+]", "values": [{"measurement": "inhibition of the Hst2 deacetylase reaction by metal ions (in words)", "setting": "Hst2 [2]", "result": "inhibitors"}]}
{"molecule": "Cn1cc(C2=C(c3cn(CCCSC(=N)N)c4ccccc34)C(=O)NC2=O)c2ccccc21", "note": "[Ro 31-8220 (6), Ro 31-8220, reference compound]", "values": [{"measurement": "IC50", "setting": "Hst2 [1]; [4]", "result": "20 ± 0.9", "unit": "µM"}]}
{"molecule": "CC(NC(=O)c1ccccc1/N=C/c1c(O)ccc2ccccc12)c1ccccc1", "note": "(centres unmarked) [Sirtinol (2), Sirtinol, reference compound]", "values": [{"measurement": "IC50", "setting": "Hst2 [1]; [4]", "result": "48 ± 11", "unit": "µM"}]}
{"molecule": "O=C1CCc2c(ccc3ccccc23)O1", "note": "[Splitomycin (3), Splitomycin, reference compound]", "values": [{"measurement": "IC50", "setting": "Hst2 [1]; [4]", "result": "> 600", "unit": "µM"}]}
{"molecule": "Cc1ccc(C(=O)Nc2ccc(S(=O)(=O)O)c3cc(S(=O)(=O)O)cc(S(=O)(=O)O)c23)cc1NC(=O)c1cccc(NC(=O)Nc2cccc(C(=O)Nc3cc(C(=O)Nc4ccc(S(=O)(=O)O)c5cc(S(=O)(=O)O)cc(S(=O)(=O)O)c45)ccc3C)c2)c1", "note": "[Suramin (8), Suramin, reference compound]", "values": [{"measurement": "IC50", "setting": "Hst2 [1]; [4]", "result": "240 ± 70", "unit": "µM"}]}
{"molecule": "CC(C)CCCCCCCCC[C@@H]1CC(=O)N[C@@H](CCC(=O)O)C(=O)N[C@@H](CC(C)C)C(=O)N[C@H](CC(C)C)C(=O)N[C@@H](C(C)C)C(=O)N[C@@H](CC(=O)O)C(=O)N[C@H](CC(C)C)C(=O)N[C@@H](CC(C)C)C(=O)O1", "note": "[Surfactin (7), Surfactin, reference compound] (EL[dL]VD[dL]L; linker N-C via X1)", "values": [{"measurement": "IC50", "setting": "Hst2 [1]", "result": "> 700", "unit": "µM"}, {"measurement": "IC50", "setting": "full-length human SIRT1", "result": "> 600", "unit": "µM"}]}
{"molecule": "CN(C)CCCCC(=O)Nc1ccc(NC(=S)NC(=O)c2ccc(C(C)(C)C)cc2)cc1", "note": "[Tenovin-6 (5), Tenovin-6, reference compound]", "values": [{"measurement": "IC50", "setting": "Hst2 [1]; [4]", "result": "> 600", "unit": "µM"}]}
{"molecule": "[Zn+2]", "note": "[Zn^2+]", "values": [{"measurement": "inhibition of the Hst2 deacetylase reaction by metal ions (in words)", "setting": "Hst2 [2]", "result": "inhibitors"}]}
{"molecule": "hexachlorophene [Compound 14a]", "values": [{"measurement": "IC50", "setting": "Hst2 [1]; Table 4, Hst2", "result": "12.5 ± 0.6", "unit": "µM"}, {"measurement": "IC50 values (range in words)", "setting": "Hst2 [1]; Table 5", "result": "low micromolar"}, {"measurement": "IC50", "setting": "Hst2 [1]; [4]", "result": "12.5 ± 0.6", "unit": "µM"}, {"measurement": "IC50", "setting": "full-length human SIRT1; read-out: SIRT1 IC50, Table 5, 240 μM NAD+, 200 μM substrate, 1 μM FL SIRT1, 15 min", "result": "34 ± 10", "unit": "µM"}, {"measurement": "kcat", "setting": "Hst2 [3]; substrate NAD+ varied", "result": "0.00933 ± 0.0013", "unit": "s⁻¹"}, {"measurement": "Inhibition Mechanism", "setting": "Hst2 [3]; substrate NAD+ varied, acetyl-lysine substrate 100 μM", "result": "fully non-competitive; also recorded: NC (full)"}, {"measurement": "Ki", "setting": "Hst2 [3]; substrate NAD+ varied", "result": "3.9 ± 0.7", "unit": "µM"}, {"measurement": "kcat", "setting": "Hst2 [3]; substrate acetyl-lysine varied", "result": "0.0222 ± 0.0015", "unit": "s⁻¹"}, {"measurement": "Inhibition Mechanism", "setting": "Hst2 [3]; substrate acetyl-lysine varied, NAD+ 160 μM", "result": "fully mixed"}, {"measurement": "Ki", "setting": "Hst2 [3]; substrate acetyl-lysine varied", "result": "2.5 ± 1", "unit": "µM"}, {"measurement": "α (mixed inhibition model)", "setting": "Hst2 [3]; with respect to the acetyl-lysine substrate", "result": 13.4}, {"measurement": "percent of residual enzyme activity, SIRT2", "setting": "human SIRT2; [5]", "result": "18.5 ± 0.8", "unit": "%"}, {"measurement": "potency estimated from few doses", "setting": "human SIRT2; read-out: apparent IC50, SIRT2, estimated from single concentration", "result": "< 50", "unit": "µM"}, {"measurement": "percent of residual enzyme activity, SIRT3", "setting": "human SIRT3; [5]", "result": "39.5 ± 1.6", "unit": "%"}, {"measurement": "potency estimated from few doses", "setting": "human SIRT3; read-out: apparent IC50, SIRT3, estimated from single concentration", "result": "< 50", "unit": "µM"}]}
